According to patent US20240182481A1 (Tango Therapeutics, Inc., priority 2021, published 2024):

Experiments:
USP1-UAF1 = USP1-UAF1 (Homo sapiens, UniProt O94782); assay: Ubiquitin Rhodamine assay for USP1-UAF1 activity; type: biochemical
Procedure: Certain compounds of the disclosure were assessed for USP1-UAF1 activity in a Ubiquitin Rhodamine assay as described in Example 135.

[1] = test system: MDA-MB-436 (BRCA1 mutant) cell line; assay: Viability assay in BRCA1 mutant cell line MDA-MB-436; type: cell-based; details: Homo sapiens, MDA-MB-436, viability, BRCA1 mutant MDA-MB-436; read-out: MDA-MB-436 rel IC50
Source text: (§1) Table 1 also indicates IC50 values in a viability assay for a non-isogenic pair of BRCA1 mutant (column 5—MDA-MB-436) and BRCA1 WT (column 6—HCC1954) cell lines. These values indicate the effect of treatment with compound on cell survival.

[2] = test system: HCC1954 (BRCA1 WT) cell line; assay: Viability assay in BRCA1 WT cell line HCC1954; type: cell-based; details: Homo sapiens, read-out: HCC 1954 IC50 rel IC50
Source text: as §1

monoubiquitinated PCNA = assay: AlphaLISA assay measuring monoubiquitinated PCNA in MDA-MB-436; type: cell-based; details: Homo sapiens, read-out: Alpha LISA IC50
Source text: Table 1 also indicates IC50 values for exemplary compounds in an AlphaLISA assay measuring monoubiquitinated PCNA in a BRCA1 mutant cell line (MDA-MB-436; column 7).

Sequence of USP1-UAF1 (O94782 whole entry): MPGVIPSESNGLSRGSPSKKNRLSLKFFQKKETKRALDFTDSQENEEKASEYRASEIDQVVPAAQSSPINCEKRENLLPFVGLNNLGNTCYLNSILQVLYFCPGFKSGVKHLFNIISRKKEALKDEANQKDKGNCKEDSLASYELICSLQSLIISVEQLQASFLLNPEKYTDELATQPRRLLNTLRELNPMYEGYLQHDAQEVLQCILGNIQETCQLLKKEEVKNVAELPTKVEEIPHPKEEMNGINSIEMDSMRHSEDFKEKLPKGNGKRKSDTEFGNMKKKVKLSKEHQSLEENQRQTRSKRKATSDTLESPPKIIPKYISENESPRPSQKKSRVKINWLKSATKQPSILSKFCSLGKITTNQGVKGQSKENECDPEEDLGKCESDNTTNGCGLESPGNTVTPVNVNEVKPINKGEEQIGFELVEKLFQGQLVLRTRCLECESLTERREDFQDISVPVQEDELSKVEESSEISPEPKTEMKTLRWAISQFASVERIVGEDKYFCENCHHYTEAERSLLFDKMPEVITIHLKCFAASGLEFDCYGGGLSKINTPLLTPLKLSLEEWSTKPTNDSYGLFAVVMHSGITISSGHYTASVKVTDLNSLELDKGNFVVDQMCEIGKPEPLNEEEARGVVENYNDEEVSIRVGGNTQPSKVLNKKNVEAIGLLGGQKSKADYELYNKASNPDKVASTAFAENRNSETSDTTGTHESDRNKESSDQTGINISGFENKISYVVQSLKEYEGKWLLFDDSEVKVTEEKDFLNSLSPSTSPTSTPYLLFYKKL
Sequence of USP1-UAF1 (Q8TAF3 whole entry partner): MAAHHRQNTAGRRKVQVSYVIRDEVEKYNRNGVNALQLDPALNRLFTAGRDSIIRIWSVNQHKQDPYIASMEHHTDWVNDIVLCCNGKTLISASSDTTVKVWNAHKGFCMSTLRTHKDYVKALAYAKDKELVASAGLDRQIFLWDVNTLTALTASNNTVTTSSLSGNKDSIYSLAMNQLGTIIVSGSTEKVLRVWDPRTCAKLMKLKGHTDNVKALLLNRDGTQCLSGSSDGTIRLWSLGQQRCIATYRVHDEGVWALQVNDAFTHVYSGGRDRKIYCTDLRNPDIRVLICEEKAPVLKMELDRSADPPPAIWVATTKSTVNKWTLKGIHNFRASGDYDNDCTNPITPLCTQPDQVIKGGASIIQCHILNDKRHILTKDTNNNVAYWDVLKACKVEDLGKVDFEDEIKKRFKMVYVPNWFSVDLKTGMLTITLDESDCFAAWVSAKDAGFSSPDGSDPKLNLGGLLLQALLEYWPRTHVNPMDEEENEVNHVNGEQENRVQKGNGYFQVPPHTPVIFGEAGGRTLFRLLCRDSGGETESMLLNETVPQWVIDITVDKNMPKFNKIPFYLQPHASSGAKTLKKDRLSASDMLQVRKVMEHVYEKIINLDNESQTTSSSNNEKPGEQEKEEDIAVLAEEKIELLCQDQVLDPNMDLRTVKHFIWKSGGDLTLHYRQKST

IC50 (USP1-UAF1)	IC50 [1]	IC50 [2]	IC50 (monoubiquitinated PCNA)	Compound
< 30 nM	< 100 nM	250 to 10000 nM	< 100 nM	CC(C)n1cc(C(F)(F)F)nc1-c1ccc(Cc2n[nH]c3cnc(-c4c(OC(F)F)ncnc4C4CC4)nc23)cc1 [Compound 137, 5-(4-cyclopropyl-6-(difluoromethoxy)pyrimidin-5-yl)-3-(4-(1-isopropyl-4-(trifluoromethyl)-1H-imidazol-2-yl)benzyl)-1H-pyrazolo[4,3-d]pyrimidine]
30 to 100 nM	< 100 nM	≥ 10000 nM	< 100 nM	CCn1cc(C(F)(F)F)nc1-c1ccc(Cc2c3nc(-c4c(OC)ncnc4C4CC4)ncc3nn2C)cc1 [Compound 139, 5-(4-cyclopropyl-6-methoxypyrimidin-5-yl)-3-(4-(1-ethyl-4-(trifluoromethyl)-1H-imidazol-2-yl)benzyl)-2-methyl-2H-pyrazolo[4,3-d]pyrimidine]
30 to 100 nM	< 100 nM	≥ 10000 nM	< 100 nM	COc1nc(C)nc(C2CC2)c1-c1ncc2[nH]cc(Cc3ccc(-c4nc(C(F)(F)F)cn4C)cc3)c2n1 [Compound 142, 2-(4-cyclopropyl-6-methoxy-2-methylpyrimidin-5-yl)-7-(4-(1-methyl-4-(trifluoromethyl)-1H-imidazol-2-yl)benzyl)-5H-pyrrolo[3,2-d]pyrimidine]
< 30 nM	< 100 nM	≥ 10000 nM	100 to 250 nM	COc1ncnc(C2CC2)c1-c1ncc2c(n1)c(Cc1ccc(-c3nc(C(F)(F)F)cn3C)cc1)cn2S(C)(=O)=O [Compound 146, 2-(4-cyclopropyl-6-methoxy-pyrimidin-5-yl)-5-methylsulfonyl-7-[[4-[1-methyl-4-(trifluoromethyl)imidazol-2-yl]phenyl]methyl]pyrrolo[3,2-d]pyrimidine]
< 30 nM	< 100 nM	250 to 10000 nM	< 100 nM	Cn1cc(C(F)(F)F)nc1-c1ccc(Cc2c[nH]c3cnc(-c4c(Cl)ccnc4C4CC4)nc23)cc1 [Compound 150, 2-(4-chloro-2-cyclopropylpyridin-3-yl)-7-(4-(1-methyl-4-(trifluoromethyl)-1H-imidazol-2-yl)benzyl)-5H-pyrrolo[3,2-d]pyrimidine]
< 30 nM	< 100 nM	≥ 10000 nM	< 100 nM	COc1nccc(C2CC2)c1-c1ncc2[nH]cc(Cc3ccc(-c4nc(C(F)(F)F)cn4C)cc3)c2n1 [Compound 152, 2-(4-cyclopropyl-2-methoxy-3-pyridyl)-7-[[4-[1-methyl-4-(trifluoromethyl)imidazol-2-yl]phenyl]methyl]-5H-pyrrolo[3,2-d]pyrimidine]
30 to 100 nM	< 100 nM	≥ 10000 nM	100 to 250 nM	COc1ccnc(C2CC2)c1-c1ncc2[nH]cc(Cc3ccc(-c4nc(C(F)(F)F)cn4C)cc3)c2n1 [Compound 161]
< 30 nM	< 100 nM	≥ 10000 nM	< 100 nM	COc1ncnc(C2CC2)c1-c1ncc2[nH]cc(Cc3cc(F)c(-n4nc(C(F)(F)F)cc4C)c(F)c3)c2n1 [Compound 162, 2-(4-cyclopropyl-6-methoxy-pyrimidin-5-yl)-7-[[3,5-difluoro-4-[5-methyl-3-(trifluoromethyl)pyrazol-1-yl]phenyl]methyl]-5H-pyrrolo[3,2-d]pyrimidine]

The next lines start with the compound.

Compound	IC50 (USP1-UAF1)	IC50 [1]	IC50 [2]	IC50 (monoubiquitinated PCNA)
Cn1cc(C(F)(F)F)nc1-c1ccc(Cc2c[nH]c3cnc(-c4c(OC(F)F)ncnc4C4CC4)nc23)cc1 [Compound 138, 2-[4-cyclopropyl-6-(difluoromethoxy)pyrimidin-5-yl]-7-[[4-[1-methyl-4-(trifluoromethyl)imidazol-2-yl]phenyl]methyl]-5H-pyrrolo[3,2-d]pyrimidine]	< 30 nM	< 100 nM	≥ 10000 nM	< 100 nM
COc1ncnc(C2CC2)c1-c1ncc2[nH]nc(Cc3ccc(-n4nc(C(F)(F)F)cc4OC)cc3)c2n1 [Compound 140, 5-(4-cyclopropyl-6-methoxy-pyrimidin-5-yl)-3-[[4-[5-methoxy-3-(trifluoromethyl)pyrazol-1-yl]phenyl]methyl]-1H-pyrazolo[4,3-d]pyrimidine]	< 30 nM	< 100 nM	250 to 10000 nM	100 to 250 nM
[2H]C([2H])([2H])n1nc(Cc2ccc(-c3nc(C(F)(F)F)cn3C)cc2)c2nc(-c3c(OC)ncnc3C3CC3)ncc21 [Compound 143, 5-(4-cyclopropyl-6-methoxy-pyrimidin-5-yl)-3-[[4-[1-methyl-4-(trifluoromethyl)imidazol-2-yl]phenyl]methyl]-1-(trideuteriomethyl)pyrazolo[4,3-d]pyrimidine]	< 30 nM	< 100 nM	≥ 10000 nM	< 100 nM
COc1ncnc(OC)c1-c1ncc2[nH]nc(Cc3ccc(-c4nc(C(F)(F)F)cn4C)cc3)c2n1 [Compound 144]	< 30 nM	100 to 250 nM	≥ 10000 nM	100 to 250 nM
COc1ncnc(C2CC2(F)F)c1-c1ncc2[nH]cc(Cc3ccc(-c4nc(C(F)(F)F)cn4C)cc3)c2n1 (centres unmarked) [Compound 147, 2-[4-(2,2-difluorocyclopropyl)-6-methoxy-pyrimidin-5-yl]-7-[[4-[1-methyl-4-(trifluoromethyl)imidazol-2-yl]phenyl]methyl]-5H-pyrrolo[3,2-d]pyrimidine]	< 30 nM	< 100 nM	≥ 10000 nM	< 100 nM
COc1ncnc(C2CC2)c1-c1nc(C)c2[nH]cc(Cc3ccc(-c4nc(C(F)(F)F)cn4C)cc3)c2n1 [Compound 148, 2-(4-cyclopropyl-6-methoxy-pyrimidin-5-yl)-4-methyl-7-[[4-[1-methyl-4-(trifluoromethyl)imidazol-2-yl]phenyl]methyl]-5H-pyrrolo[3,2-d]pyrimidine]	< 30 nM	< 100 nM	≥ 10000 nM	< 100 nM
COc1ncnc(C2CC2)c1-c1ncc2[nH]cc(Cc3ccc(-c4nc(C(F)(F)F)cn4C)c(F)c3)c2n1 [Compound 153, 2-(4-cyclopropyl-6-methoxy-pyrimidin-5-yl)-7-[[3-fluoro-4-[1-methyl-4-(trifluoromethyl)imidazol-2-yl]phenyl]methyl]-5H-pyrrolo[3,2-d]pyrimidine]	< 30 nM	< 100 nM	≥ 10000 nM	< 100 nM
COc1ncnc(C2CC2)c1-c1ncc2[nH]cc(Cc3ccc(-c4nc(C(F)(F)F)cn4C4COC4)cc3)c2n1 [Compound 154, 2-(4-cyclopropyl-6-methoxy-pyrimidin-5-yl)-7-[[4-[1-(oxetan-3-yl)-4-(trifluoromethyl)imidazol-2-yl]phenyl]methyl]-5H-pyrrolo[3,2-d]pyrimidine]	30 to 100 nM	< 100 nM	≥ 10000 nM	100 to 250 nM
CNCc1[nH]c2cnc(-c3c(OC)ncnc3C3CC3)nc2c1Cc1ccc(-c2nc(C(F)(F)F)cn2C)cc1 [Compound 159, 1-[2-(4-cyclopropyl-6-methoxy-pyrimidin-5-yl)-7-[[4-[1-methyl-4-(trifluoromethyl)imidazol-2-yl]phenyl]methyl]-5H-pyrrolo[3,2-d]pyrimidin-6-yl]-N-methyl-methanamine]	100 to 10000 nM	100 to 250 nM	250 to 10000 nM	100 to 250 nM
COc1ncnc(C2CC2)c1-c1nc(OC)c2[nH]cc(Cc3ccc(-c4nc(C(F)(F)F)cn4C)cc3)c2n1 [Compound 160]	100 to 10000 nM	100 to 250 nM	250 to 10000 nM	250 to 10000 nM
[2H]C([2H])([2H])Oc1ncnc(C2CC2)c1-c1ncc2[nH]nc(Cc3ccc(-c4nc(C(F)(F)F)cn4C)cc3)c2n1 [Compound 163, 5-[4-cyclopropyl-6-(trideuteriomethoxy)pyrimidin-5-yl]-3-[[4-[1-methyl-4-(trifluoromethyl)imidazol-2-yl]phenyl]methyl]-1H-pyrazolo[4,3-d]pyrimidine]	< 30 nM	< 100 nM	≥ 10000 nM	< 100 nM
COc1ncnc(C2CC2)c1-c1ncc2nn(S(C)(=O)=O)c(Cc3ccc(-c4nc(C(F)(F)F)cn4C)cc3)c2n1 [Compound 164, 5-(4-cyclopropyl-6-methoxy-pyrimidin-5-yl)-2-methylsulfonyl-3-[[4-[1-methyl-4-(trifluoromethyl)imidazol-2-yl]phenyl]methyl]pyrazolo[4,3-d]pyrimidine]	30 to 100 nM	< 100 nM	≥ 10000 nM	< 100 nM
CCn1cc(C(F)(F)F)nc1-c1ccc(Cc2n[nH]c3cnc(-c4c(OC)ncnc4C4CC4)nc23)cc1 [Compound 165, 5-(4-cyclopropyl-6-methoxypyrimidin-5-yl)-3-(4-(1-ethyl-4-(trifluoromethyl)-1H-imidazol-2-yl)benzyl)-1H-pyrazolo[4,3-d]pyrimidine]	< 30 nM	< 100 nM	≥ 10000 nM	< 100 nM
COc1ncnc(C2CC2)c1-c1ncc2c(n1)c(Sc1ccc(-c3nc(C(F)(F)F)cn3C)cc1)cn2C [Compound 166]	100 to 10000 nM	100 to 250 nM	≥ 10000 nM	250 to 10000 nM
COc1ncnc(C2CC2)c1-c1cc2c(Oc3ccc(-c4nc(C(F)(F)F)cn4C)cc3)c[nH]c2cn1 [Compound 167, 5-(4-cyclopropyl-6-methoxy-pyrimidin-5-yl)-3-[4-[1-methyl-4-(trifluoromethyl)imidazol-2-yl]phenoxy]-1H-pyrrolo[2,3-c]pyridine]	30 to 100 nM	< 100 nM	≥ 10000 nM	< 100 nM
